The source of these data is PubChem BioAssay (NCI).

What all share (assay): growth of human tumour cells (NCI), 48 h
The subject of assay [1] is RXF 393 renal.
The subject of assay [2] is A549 NSCLC.
For assay [3], the system named is M14 melanoma.
For assay [4], the system named is COLO 205 colon.
Assay [5] concerns OVCAR-4 ovarian.
For assay [6], the system named is HS 578T breast.
In assay [7] the test system is EKVX NSCLC.
In assay [8] the test system is HL-60(TB) leukemia.
Assay [9] relates to HT29 colon.
Assay [10] has as its system NCI-H522 lung.
The subject of assay [11] is NCI-H226 lung.
Assay [12] relates to MDA-MB-231 breast.
In assay [13] the test system is MDA-N.
In assay [14] the test system is SR leukemia.

Molecules are shown by their SMILES. Values joined by “and” are separate entries in the source; they are usually repeats but may differ in a detail not shown here. Equal values may be shown once.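 48-hour exposure; five concentrations; linearly interpolated endpoints. Abbreviation: GI50, concentration required for 50% inhibition of growth. Definition used: TGI = concentration required for complete inhibition of growth.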 Bounds are passed on as bounds.

`COC1/C=C(C)/C=C/C(C)/C=C/C(=O)OC(/C(C)=C/C=C(\C)CNC(=O)[C@H](CO)NC=O)C(C)/C=C/C=C/C(OC)CC/C=C(C)/C=C/C1` (stereo partly drawn): the TGI was over 1 µM in assay [1]; over 1 µM in [2]; 0.0356 µM in [3]; over 1 µM in assay [4]; over 1 µM in assay [5]; over 1 µM in [6]. Further, the TGI in assay [7] is over 1 µM; in [8] it was 0.0957 µM; in assay [9], over 1 µM; in assay [10] it was over 1 µM. In addition, the GI50 in assay [4] is 0.0331 µM; in assay [10], 0.0362 µM.

For `Cc1ccc([N+](=O)[O-])cc1S(=O)(=O)Nc1ccc(C2=NN(S(=O)(=O)c3cc([N+](=O)[O-])ccc3C)C(c3ccccc3)C2)cc1` (stereo not drawn), the TGI was over 100 µM in [1]; over 100 µM in assay [2]; 98.1 µM in assay [3]; over 100 µM in [11]; 78.8 µM in assay [4]; 90.9 µM in assay [12]. Further, the TGI in assay [13] was 97.3 µM; in assay [5] it was over 100 µM; in assay [6] it was 21.2 µM; in assay [7], over 100 µM; in [8], over 100 µM; in [9] it was over 100 µM. For the same compound, the TGI in assay [14] was over 100 µM; in assay [10], 50.6 µM.

`CCCCN1C(=O)C2Cc3c([nH]c4ccccc34)C(c3cccc(O)c3)N2C1=O` (stereo not drawn): the TGI in assay [2] amounted to 35 µM; in assay [3], 34.4 µM; in assay [11], 42.3 µM; in [4], 39.5 µM; in assay [12], 31.2 µM; in assay [13], 36.3 µM. Moreover, the TGI stood at 34.6 µM in [5]; 69.1 µM in assay [6]; 31.9 µM in assay [7]; 46.2 µM in [8]; 35.7 µM in assay [9]; 45.6 µM in [14]. Also, in assay [10], the TGI stood at 39.9 µM.

For `C[C@H]1C[C@@H]2[C@H]([C@@H](O)C[C@@]3(C)[C@H]2CC[C@]3(O)C(=O)CO)[C@@]2(C)C=CC(=O)C=C12`, the TGI in assay [2], in assay [3], in [11], in assay [4], in assay [5] and in assay [8] was over 100 µM each time. Besides, the TGI in assay [9], in assay [14] and in [10] was over 100 µM each time.

Take `CC(=O)Oc1ccccc1`: the TGI in assay [1], in assay [2], in assay [3], in assay [11], in assay [5] and in assay [7] was over 100 µM each time. Also, the TGI in [8], in [9] and in [10] was over 100 µM in each case.

As to `COc1cc(C(=O)NC2CCc3cc(OC)c(OC)c(OC)c3-c3ccc(OC)c(=O)cc32)cc(OC)c1OC` (stereo not drawn), the TGI in [1] is 24 µM; in assay [2], over 100 µM; in assay [3], 10.5 µM; in assay [11], 3.31 µM; in assay [4], 0.23 µM; in [12] it was over 100 µM. The TGI was 0.0961 µM in assay [13]; over 85.1 µM in assay [5]; over 21.1 µM in [6]; over 100 µM in assay [7]; 0.262 µM in [8]; 2.29 µM in assay [9]. Besides, the TGI was over 100 µM in assay [14] and 0.0544 µM in assay [10].

Turning to `c1ccc2c(CSCc3cccc4ccccc34)cccc2c1`, the TGI in assay [1], in assay [2], in assay [3], in assay [11], in [12] and in [13] was over 100 µM in each case. The TGI in assay [5], in [6], in assay [7], in assay [9], in [14] and in assay [10] was over 100 µM in each case.

With `Cc1c2ccccc2c(C2C3C(=O)N(c4ccc(Br)cc4)C(=O)C3ON2C(C(N)=O)c2ccccc2)c2ccccc12` (stereo not drawn), the TGI is 37.3 µM in assay [1]; 14.1 µM in [2]; over 100 µM in [3]; 30 µM in [11]; 3.33 µM in [4]; 35.1 µM in [13]. Further, the TGI was over 100 µM in [5]; 31.7 µM in assay [7]; 14 µM in assay [8]; 7.35 µM in assay [9]; 9 µM in [10].

In the case of `COc1cc2c(c(OC)c1OC)-c1ccc(OC)c(=O)cc1C(NC(=O)COc1ccccc1)CC2` (stereo not drawn), the TGI is over 71.5 µM in assay [1]; over 100 µM in assay [2]; over 21.5 µM in [3]; 0.423 µM in [11]; under 0.01 µM in assay [4]; 1.22 µM in [12]. Further, the TGI in assay [13] was under 0.01 µM; in assay [5], over 84 µM; in [6], over 31.6 µM; in [7], over 100 µM; in [9] it was under 0.146 µM; in assay [14], 8.93 µM. In assay [10], this compound displayed a TGI of under 0.01 µM.

Regarding `C[C@@H]1C[C@H]2[C@@H]3CCC4=CC(=O)C=C[C@]4(C)[C@@]3(F)[C@@H](O)C[C@]2(C)[C@@]1(O)C(=O)CO`, the TGI in [2], in assay [3], in assay [11], in assay [4], in assay [5] and in assay [7] was over 100 µM throughout. For the same compound, the TGI in assay [8], in assay [9], in assay [14] and in assay [10] was over 100 µM throughout.

With `O=C(C=P(c1ccccc1)(c1ccccc1)c1ccccc1)c1ccc(-c2cccs2)cc1`, the TGI amounted to 15.4 µM in [1]; 11.6 µM in assay [2]; 7.75 µM in assay [3]; 8.4 µM in [11]; 1.95 µM in [4]; 25.5 µM in [12]. Moreover, the TGI stood at 11.7 µM in assay [13]; 7.52 µM in [5]; 49.4 µM in assay [6]; 7.09 µM in assay [7]; 4.87 µM in assay [8]; 13.7 µM in assay [9]. This compound also came in with a TGI in [10] of 12 µM.

For the compound `CCOC(=O)c1cnc(N(C)C)nc1SC(=N)N`, the TGI in assay [1], in assay [2], in assay [3], in assay [11], in assay [4] and in assay [12] was over 100 µM throughout. In addition, the TGI in [13], in [5], in assay [6], in [7], in assay [9] and in assay [14] was over 100 µM throughout. Further, in assay [10], the TGI was over 100 µM.

On to `CCOc1cc(C2CC(c3ccc(NS(=O)(=O)c4cc([N+](=O)[O-])ccc4C)cc3)=NN2S(=O)(=O)c2cc([N+](=O)[O-])ccc2C)ccc1O` (stereo not drawn), for which the TGI in [1] is 70.7 µM; in assay [2], over 100 µM; in [3], over 100 µM; in assay [11], over 100 µM; in assay [4] it was over 100 µM; in assay [12], over 100 µM. The TGI was over 100 µM in assay [13]; over 100 µM in [5]; over 100 µM in assay [6]; 82.2 µM in [7]; over 100 µM in assay [8]; over 100 µM in [9]. Besides, the TGI in assay [14] and in assay [10] was over 100 µM in each case.

For the compound `CN1C=c2c3c(ccc2=C2C=CC4C=C5OCOC5=CC4=C21)OCO3` (stereo not drawn), the TGI in assay [1] is 2.57 µM and 4.4 µM; in assay [2], 3.95 µM and 18.8 µM; in [3], 2.55 µM and 3.78 µM; in [11], 3.36 µM and 14.7 µM; in assay [4] it was 2.78 µM and 3.5 µM; in [12], 2.54 µM and 4.52 µM. The TGI in assay [13] is 2.79 µM and 3.98 µM; in assay [5], 3.53 µM and 7.5 µM; in [6] it was > 24.9 µM and 5.78 µM; in [7] it was 3.16 µM and 26.3 µM; in [8] it was 0.434 µM and 0.847 µM; in assay [9], 3.02 µM and 5.1 µM. In addition, in assay [10], the TGI was 2.76 µM and 3.3 µM. In addition, the GI50 in assay [2] was 1.77 µM and 6.26 µM; in [11] it was 1.82 µM and 7.18 µM; in assay [7], 1.72 µM and 13.5 µM; in assay [14], 2.48 µM.

With `Cc1ccc2c(c1)SC1=Nc3sc4cc(C)ccc4[n+]3CN12`, the TGI in assay [1] was over 100 µM; in assay [2], 67.1 µM; in [3], 19.1 µM; in assay [11], 75.2 µM; in assay [4], 13.1 µM; in assay [12], 92.8 µM. Further, the TGI in [5] came to 29.6 µM; in [6], 35.5 µM; in assay [7] it was 45.4 µM; in assay [8], 9.77 µM; in [9] it was 28.4 µM; in [10], 11.2 µM.

As to `Cc1ccc(O)c(Cc2nc3ccccc3nc2-c2cccc(Cl)c2)c1`, the TGI in assay [1], in assay [2], in [3], in assay [11], in assay [4] and in assay [12] was over 100 µM each time. Further, the TGI was over 100 µM in assay [13]; 65.8 µM in assay [5]; over 100 µM in assay [6]; over 100 µM in assay [7]; over 100 µM in assay [8]; over 100 µM in assay [9]. Besides, the results for the TGI in [14] and in assay [10] were over 100 µM and 79 µM, respectively.

Turning to `O=C(CSCC(=O)N/N=C/c1ccc2c(c1)OCO2)N/N=C/c1ccc2c(c1)OCO2`, the TGI in [1], in [2], in assay [3], in [11], in [12] and in assay [5] was over 100 µM throughout. The TGI in [6], in assay [7], in assay [8], in assay [9] and in [10] was over 100 µM throughout.

For the compound `COc1ccccc1/C=C/c1ccnc2ccccc12`, the TGI in assay [2] was found to be 31 µM; in [3] it was 29.7 µM; in assay [11], 29.5 µM; in assay [4] it was 33.2 µM; in assay [12] it was 31.1 µM; in assay [13] it was 26.1 µM. Also, the TGI in assay [5] is 25.4 µM; in assay [6], 38.5 µM; in [7] it was 23 µM; in [8] it was 26 µM; in assay [9], 25.4 µM; in assay [14], 35.7 µM.

With `CCCCc1ccc(N=C(N)N)cc1`, the TGI in assay [2] is over 100 µM; in assay [3], 63.5 µM; in [11], 91.5 µM; in [4], 35.4 µM; in assay [12], over 100 µM; in assay [13], 67 µM. For the same compound, the TGI is over 100 µM in assay [5]; over 100 µM in [6]; over 100 µM in [7]; 73.6 µM in assay [8]; 93.5 µM in assay [9]; over 100 µM in assay [10].

As for `CC(=O)O[C@@H]1C[C@]2(C(=O)c3ccccc3)C(=O)C(=O)S[C@]12c1ccccc1`, the TGI in assay [1] was 49.9 µM; in [2], over 100 µM; in [3], over 100 µM; in [11] it was over 100 µM; in assay [4] it was over 100 µM; in assay [12] it was over 100 µM. For the same compound, the TGI in assay [13] was over 100 µM; in [5], over 100 µM; in assay [6] it was over 100 µM; in assay [7], over 100 µM; in assay [9], over 100 µM; in assay [14], 83.1 µM. For the same compound, the TGI in assay [10] is over 100 µM.

Take `C[n+]1cccc(NC(=O)c2ccc(NC(=O)C34CCC(C(=O)Nc5ccc(C(=O)Nc6ccc[n+](C)c6)cc5)(CC3)CC4)cc2)c1`: the TGI was 61.5 µM in assay [1]; over 100 µM in assay [2]; over 100 µM in assay [3]; over 100 µM in assay [11]; over 100 µM in assay [5]; over 100 µM in [7]. For the same compound, the TGI in assay [8] is 9.33 µM; in [9], over 100 µM; in assay [14], over 100 µM; in [10], over 100 µM.
